The source of these data is US6673607B2, “Microinjection of cryoprotectants for preservation of cells” (priority 2000, dated 2004).

The conditions of series [1]: cited from earlier work; for Tg′: α-(1→4)-linked glucose hexamers, Levine and Slade; for temperature at which Tm and Tg curves cross (Tg′): phase diagram, FIG. 6.
Series [2] relates to metaphase II mouse oocytes. Put plainly: survival of cooled oocytes after overnight culture in modified HTF media, isotonic (live/dead assay). Type of series: cell-based. The note with it: 0.50 M extracellular trehalose only; very slow cooling to −60° C. On the procedure: (§1) Once the cell is prepared for storage, it is stored in a manner appropriate to its preparation. Frozen cells can be stored at cryogenic temperatures and dried cells can be dry stored at ambient or other temperatures as appropriate. Recovery of stored cells is geared to the method of their preparation for storage. Dried cells are rehydrated, and frozen cells are thawed. Preferably, at least 25, 35, 50, 60, 70, 80, 90, 95, or 100% of the recovered cells are viable. Cell viability may be measured using any standard assay, such as a “live/dead” assay using the green dye calcein-AM to indicate viable cells and the red dye ethidium homodimer to indicate dead cells, according to the manufacturer's protocol (Molecular Probes, Inc.). In another preferred embodiment, at least 5, 10, 15, 25, 35, 50, 60, 70, 80, 90, or 95% of the recovered oocytes may be fertilized using standard in vitro fertilization techniques (see, for example, Summers et al., Biol. Reprod. 53:431-437, 1995). Preferably, the fertilized oocytes develop into 2-cell stage embryos, 4-cell stage embryos, morula-stage embryos, blastocyst-stage embryos, fetal-stage embryos, or viable offspring.
Cell survival was measured using the live/dead assay. […] In FIG. 10, oocytes were cooled at a very slow cooling rate to an intermediate temperature (−60° C.). […]

Series [3] deals with metaphase II mouse oocytes. The experiment in a line: survival of cooled oocytes after overnight culture in modified HTF, hypertonic media (live/dead assay). Type of series: cell-based. On the procedure:
as §1
FIGS. 9A and 9B are a set of graphs showing the survival of cooled metaphase II mouse oocytes after overnight culture in modified HTF, hypertonic media as a function of extracellular trehalose concentration at −15° and −30°, respectively. These experiments were performed using a cooling rate of 1° C./min, with or without approximately 0.10 to 0.15 M intracellular trehalose. Cell viability was assessed using the live/dead assay described herein. […] As the extracellular amount of trehalose in the freezing solution was increased from 0.15 M (approximately the same amount as the intracellular trehalose) to 0.30 M or 0.50 M, the survival rate improved from about 18, to 55 or 85%, respectively.

The subject of another series is oocytes. The experiment in a line: cryomicroscopy: cumulative incidence of intracellular ice during cooling. Type of series: cell-based. The note with it: cooling 3.5° C./min. The procedure:
FIG. 13 is a graph with a set of curves showing the percentage of oocytes that have intracellular ice at various temperatures. For this assay, standard cryomicroscopy procedures were used to cool oocytes at a rate of 3.5° C./min (Cosman et al., Cryo-Letters 10:17-38, 1989). The oocytes were observed using a cryomicroscope to determine whether intracellular ice had formed. The presence of intracellular ice was easily detected based on the black color that appeared due to the light scattered by the ice crystals. This assay was used to test control oocytes incubated in isotonic media alone, oocytes incubated in media with 0.1 M extracellular trehalose, and oocytes injected with 0.1 M trehalose and incubated in media with 0.1 M extracellular trehalose. […] In the field of cryobiology, it has been established that the faster the cooling rate without formation of lethal intracellular ice, the greater the chance of cell survival.

In series [4] the test system is metaphase II mouse oocytes. Put plainly: fertilization and blastocyst development of fresh oocytes cultured in modified HTF media. Type of series: cell-based. On the procedure: Thus, a hypertonic media for the culturing of certain recovered cells was developed using a two-prong approach. First, a standard culture medium called HTF (human tubal fluid medium) was modified to minimize the concentration of electrolytes (see FIG. 7, components marked with down arrows) and to increase other nutrients and amino acids (see FIG. 7, components marked with up arrows). The osmolarity of this medium was determined using an osmometer. Because the osmolarity of this medium was approximately 285 mosm, which is close to the normal internal osmolarity of cells, this medium is called modified HTF, isotonic. Second, the water content of the medium was reduced to equally increase the concentrations of each component to achieve a final osmolarity of 320 mosm. This medium is called modified HTF, hypertonic, (see FIG. 7, last column).
To test the ability of modified HTF, isotonic and hypertonic media to support the fertilization and development of oocytes, these medias were used to culture fresh mouse metaphase II oocytes that had not been cyropreserved. […] If desired, the composition and hypertonicity of the culture medium may be further optimized to increase the number of blastocysts or viable offspring that are formed. For example, a culture medium having a higher osmolarity (such as 330, 340, 350, 360, 370, or 380 mosm) may better mimic oviductal fluid (which may have an osmolarity of at least 360 mosm) and thus further promote development of viable offspring (Van Winkle et al., J. Expt Zool. 253:215-219, 1990). Any other suitable hypertonic media with a osmolarity of at least 300, 310, 320, 330, 340, 350, 360, 370, 380, or more mosm may be used in preferred methods for culturing cells in vitro. These methods may be used to culture cells with or without intracellular sugar. These preferred medias may also be used before, during, or after storage of cryopreserved cells.

Where [5] appears, read: oocytes injected with 0.07 M trehalose, modified HTF, hypertonic media.

As for cyclodextrin, in series [1], the “Tg′” value was −9 °C.
Regarding maltohexaose, the “Tg′” value in series [1] was −14.5 °C.
On to `OC[C@H]1O[C@H](O[C@H]2O[C@H](CO)[C@@H](O)[C@H](O)[C@H]2O)[C@H](O)[C@@H](O)[C@@H]1O` [trehalose], for which the survival rate result in series [2] is on record as “some improvement over the control”; in series [3] (0.15 M extracellular trehalose in freezing solution, with approximately 0.10 to 0.15 M intracellular trehalose, cooling 1° C./min), “about 18%”; in series [3] (0.30 M extracellular trehalose in freezing solution, with approximately 0.10 to 0.15 M intracellular trehalose, cooling 1° C./min), around 55%; in series [3] (0.50 M extracellular trehalose in freezing solution, with approximately 0.10 to 0.15 M intracellular trehalose, cooling 1° C./min), around 85%; in series [3] (cooled to −15° C. at 1° C./min, approximately 0.10 to 0.15 M intracellular trehalose versus none) it was “dramatically increased”; in series [3] (cooled to −30° C. at 1° C./min, approximately 0.10 to 0.15 M intracellular trehalose versus none) it was “dramatically increased”. Also, in the series with oocytes (0.1 M extracellular trehalose versus isotonic media alone), the “incidence of intracellular ice formation” value is “reduced”. Moreover, the “frequency of intracellular ice” value in the series with oocytes (0.1 M injected trehalose plus 0.1 M extracellular trehalose) is listed as “further reduced”. The “frequency of blastocyst formation” value in series [4] (intracellular trehalose 0.15 M) is on record as “reduced, but still significant”. Also, the frequency of fertilization entry is on record as “reduced, but still significant” in series [4] (intracellular trehalose 0.15 M) and “high frequency” in series [4] (setting [5]). Besides, the “frequency of blastocyst development” value in series [4] (setting [5]) is given as “high frequency”. Also, the “temperature at which Tm and Tg curves cross (Tg′)” value in series [1] is “approximately −30 °C”.
Regarding `C[S+](C)[O-]` [DMSO, dimethyl sulfoxide], the “temperature at which Tm and Tg curves cross (Tg′)” value in series [1] is “approximately −80 °C”.
